# From the NIST ThermoML archive (doi:10.1021/je800571y)
# ± gives the expanded uncertainty stated by the source.
# Experiment: xn = mol fraction of the nth substance listed
# Conditions: 101 kPa, Liquid
structure (smiles),measurement,setting,value
CCC(C)=O [butanone] + CCC(C)O,mass density,"293.15 K, x1 = 0.0684",806.36 ± 1 kg/m3
same,viscosity,"293.15 K, x1 = 0.0684",2.91 ± 0.52 mPa·s
same,mass density,"293.15 K, x1 = 0.1365",806.25 ± 1 kg/m3
same,viscosity,"293.15 K, x1 = 0.1365",2.34 ± 0.43 mPa·s
same,mass density,"293.15 K, x1 = 0.2044",806.14 ± 1 kg/m3
same,viscosity,"293.15 K, x1 = 0.2044",1.87 ± 0.35 mPa·s
same,mass density,"293.15 K, x1 = 0.2721",806.03 ± 1 kg/m3
same,viscosity,"293.15 K, x1 = 0.2721",1.491 ± 0.28 mPa·s
same,mass density,"293.15 K, x1 = 0.3395",805.92 ± 1 kg/m3
same,viscosity,"293.15 K, x1 = 0.3395",1.183 ± 0.23 mPa·s
same,mass density,"293.15 K, x1 = 0.4066",805.81 ± 1 kg/m3
same,viscosity,"293.15 K, x1 = 0.4066",0.9558 ± 0.19 mPa·s
same,mass density,"293.15 K, x1 = 0.4735",805.71 ± 1.1 kg/m3
same,viscosity,"293.15 K, x1 = 0.4735",0.7693 ± 0.16 mPa·s
same,mass density,"293.15 K, x1 = 0.5402",805.61 ± 1.1 kg/m3
same,viscosity,"293.15 K, x1 = 0.5402",0.6236 ± 0.13 mPa·s
same,mass density,"293.15 K, x1 = 0.6066",805.5 ± 1.1 kg/m3
same,viscosity,"293.15 K, x1 = 0.6066",0.5287 ± 0.12 mPa·s
same,mass density,"293.15 K, x1 = 0.6727",805.4 ± 1.1 kg/m3
same,viscosity,"293.15 K, x1 = 0.6727",0.4645 ± 0.11 mPa·s
same,mass density,"293.15 K, x1 = 0.7387",805.3 ± 1.1 kg/m3
same,viscosity,"293.15 K, x1 = 0.7387",0.4412 ± 0.1 mPa·s
same,mass density,"293.15 K, x1 = 0.8044",805.21 ± 1.1 kg/m3
same,viscosity,"293.15 K, x1 = 0.8044",0.4486 ± 0.1 mPa·s
same,mass density,"293.15 K, x1 = 0.8698",805.11 ± 1.1 kg/m3
same,viscosity,"293.15 K, x1 = 0.8698",0.4468 ± 0.1 mPa·s
same,mass density,"293.15 K, x1 = 0.935",805.01 ± 1.1 kg/m3
same,viscosity,"293.15 K, x1 = 0.935",0.42 ± 0.098 mPa·s
same,mass density,"293.15 K, x1 = 1",804.92 ± 1.1 kg/m3
same,viscosity,"293.15 K, x1 = 1",0.3956 ± 0.093 mPa·s
same,mass density,"298.15 K, x1 = 0.0684",802.16 ± 1 kg/m3
same,viscosity,"298.15 K, x1 = 0.0684",2.429 ± 0.44 mPa·s
same,mass density,"298.15 K, x1 = 0.1365",801.98 ± 1 kg/m3
same,viscosity,"298.15 K, x1 = 0.1365",2.007 ± 0.37 mPa·s
same,mass density,"298.15 K, x1 = 0.2044",801.79 ± 1 kg/m3
same,viscosity,"298.15 K, x1 = 0.2044",1.613 ± 0.3 mPa·s
same,mass density,"298.15 K, x1 = 0.2721",801.61 ± 1 kg/m3
same,viscosity,"298.15 K, x1 = 0.2721",1.299 ± 0.25 mPa·s
same,mass density,"298.15 K, x1 = 0.3395",801.43 ± 1 kg/m3
same,viscosity,"298.15 K, x1 = 0.3395",1.051 ± 0.21 mPa·s
same,mass density,"298.15 K, x1 = 0.4066",801.25 ± 1.1 kg/m3
same,viscosity,"298.15 K, x1 = 0.4066",0.8537 ± 0.17 mPa·s
same,mass density,"298.15 K, x1 = 0.4735",801.07 ± 1.1 kg/m3
same,viscosity,"298.15 K, x1 = 0.4735",0.687 ± 0.14 mPa·s
same,mass density,"298.15 K, x1 = 0.5402",800.9 ± 1.1 kg/m3
same,viscosity,"298.15 K, x1 = 0.5402",0.56 ± 0.12 mPa·s
same,mass density,"298.15 K, x1 = 0.6066",800.72 ± 1.1 kg/m3
same,viscosity,"298.15 K, x1 = 0.6066",0.48 ± 0.11 mPa·s
same,mass density,"298.15 K, x1 = 0.6727",800.55 ± 1.1 kg/m3
same,viscosity,"298.15 K, x1 = 0.6727",0.4282 ± 0.099 mPa·s
same,mass density,"298.15 K, x1 = 0.7387",800.38 ± 1.1 kg/m3
same,viscosity,"298.15 K, x1 = 0.7387",0.3922 ± 0.093 mPa·s
same,mass density,"298.15 K, x1 = 0.8044",800.1 ± 1.1 kg/m3
same,viscosity,"298.15 K, x1 = 0.8044",0.362 ± 0.087 mPa·s
same,mass density,"298.15 K, x1 = 0.8698",800.04 ± 1.1 kg/m3
same,viscosity,"298.15 K, x1 = 0.8698",0.3482 ± 0.085 mPa·s
same,mass density,"298.15 K, x1 = 0.935",799.87 ± 1.1 kg/m3
same,viscosity,"298.15 K, x1 = 0.935",0.3 ± 0.077 mPa·s
same,mass density,"298.15 K, x1 = 1",799.7 ± 1.1 kg/m3
same,viscosity,"298.15 K, x1 = 1",0.2828 ± 0.074 mPa·s
same,mass density,"303.15 K, x1 = 0.0684",798.67 ± 1.1 kg/m3
same,viscosity,"303.15 K, x1 = 0.0684",2.037 ± 0.37 mPa·s
same,mass density,"303.15 K, x1 = 0.1365",798.39 ± 1.1 kg/m3
same,viscosity,"303.15 K, x1 = 0.1365",1.649 ± 0.31 mPa·s
same,mass density,"303.15 K, x1 = 0.2044",798.1 ± 1.1 kg/m3
same,viscosity,"303.15 K, x1 = 0.2044",1.352 ± 0.26 mPa·s
same,mass density,"303.15 K, x1 = 0.2721",797.82 ± 1.1 kg/m3
same,viscosity,"303.15 K, x1 = 0.2721",1.074 ± 0.21 mPa·s
same,mass density,"303.15 K, x1 = 0.3395",797.54 ± 1.1 kg/m3
same,viscosity,"303.15 K, x1 = 0.3395",0.8484 ± 0.17 mPa·s
same,mass density,"303.15 K, x1 = 0.4066",797.26 ± 1.1 kg/m3
same,viscosity,"303.15 K, x1 = 0.4066",0.6826 ± 0.14 mPa·s
same,mass density,"303.15 K, x1 = 0.4735",796.98 ± 1.1 kg/m3
same,viscosity,"303.15 K, x1 = 0.4735",0.5613 ± 0.12 mPa·s
same,mass density,"303.15 K, x1 = 0.5402",796.71 ± 1.1 kg/m3
same,viscosity,"303.15 K, x1 = 0.5402",0.4526 ± 0.1 mPa·s
same,mass density,"303.15 K, x1 = 0.6066",796.43 ± 1.1 kg/m3
same,viscosity,"303.15 K, x1 = 0.6066",0.3944 ± 0.093 mPa·s
same,mass density,"303.15 K, x1 = 0.6727",796.16 ± 1.1 kg/m3
same,viscosity,"303.15 K, x1 = 0.6727",0.3468 ± 0.085 mPa·s
same,mass density,"303.15 K, x1 = 0.7387",795.89 ± 1.1 kg/m3
same,viscosity,"303.15 K, x1 = 0.7387",0.3077 ± 0.078 mPa·s
same,mass density,"303.15 K, x1 = 0.8044",795.62 ± 1.1 kg/m3
same,viscosity,"303.15 K, x1 = 0.8044",0.3031 ± 0.077 mPa·s
same,mass density,"303.15 K, x1 = 0.8698",795.35 ± 1.1 kg/m3
same,viscosity,"303.15 K, x1 = 0.8698",0.3071 ± 0.078 mPa·s
same,mass density,"303.15 K, x1 = 0.935",795.08 ± 1.1 kg/m3
same,viscosity,"303.15 K, x1 = 0.935",0.2786 ± 0.073 mPa·s
same,mass density,"303.15 K, x1 = 1",794.81 ± 1.1 kg/m3
same,viscosity,"303.15 K, x1 = 1",0.2666 ± 0.071 mPa·s
same,mass density,"308.15 K, x1 = 0.0684",793.88 ± 1.1 kg/m3
same,viscosity,"308.15 K, x1 = 0.0684",1.692 ± 0.32 mPa·s
same,mass density,"308.15 K, x1 = 0.1365",793.58 ± 1.1 kg/m3
same,viscosity,"308.15 K, x1 = 0.1365",1.339 ± 0.26 mPa·s
same,mass density,"308.15 K, x1 = 0.2044",793.28 ± 1.1 kg/m3
same,viscosity,"308.15 K, x1 = 0.2044",1.054 ± 0.21 mPa·s
same,mass density,"308.15 K, x1 = 0.2721",792.98 ± 1.1 kg/m3
same,viscosity,"308.15 K, x1 = 0.2721",0.8161 ± 0.17 mPa·s
same,mass density,"308.15 K, x1 = 0.3395",792.68 ± 1.1 kg/m3
same,viscosity,"308.15 K, x1 = 0.3395",0.6282 ± 0.13 mPa·s
same,mass density,"308.15 K, x1 = 0.4066",792.39 ± 1.1 kg/m3
same,viscosity,"308.15 K, x1 = 0.4066",0.5076 ± 0.11 mPa·s
same,mass density,"308.15 K, x1 = 0.4735",792.09 ± 1.2 kg/m3
same,viscosity,"308.15 K, x1 = 0.4735",0.4126 ± 0.096 mPa·s
same,mass density,"308.15 K, x1 = 0.5402",791.8 ± 1.2 kg/m3
same,viscosity,"308.15 K, x1 = 0.5402",0.3601 ± 0.087 mPa·s
same,mass density,"308.15 K, x1 = 0.6066",791.51 ± 1.2 kg/m3
same,viscosity,"308.15 K, x1 = 0.6066",0.326 ± 0.081 mPa·s
same,mass density,"308.15 K, x1 = 0.6727",791.22 ± 1.2 kg/m3
same,viscosity,"308.15 K, x1 = 0.6727",0.3051 ± 0.078 mPa·s
same,mass density,"308.15 K, x1 = 0.7387",790.93 ± 1.2 kg/m3
same,viscosity,"308.15 K, x1 = 0.7387",0.309 ± 0.078 mPa·s
same,mass density,"308.15 K, x1 = 0.8044",790.64 ± 1.2 kg/m3
same,viscosity,"308.15 K, x1 = 0.8044",0.3112 ± 0.079 mPa·s
same,mass density,"308.15 K, x1 = 0.8698",790.35 ± 1.2 kg/m3
same,viscosity,"308.15 K, x1 = 0.8698",0.3186 ± 0.08 mPa·s
same,mass density,"308.15 K, x1 = 0.935",790.06 ± 1.2 kg/m3
same,viscosity,"308.15 K, x1 = 0.935",0.2966 ± 0.076 mPa·s
same,mass density,"308.15 K, x1 = 1",789.78 ± 1.2 kg/m3
same,viscosity,"308.15 K, x1 = 1",0.2601 ± 0.07 mPa·s
same,mass density,"313.15 K, x1 = 0.0684",789.68 ± 1.1 kg/m3
same,viscosity,"313.15 K, x1 = 0.0684",1.499 ± 0.28 mPa·s
same,mass density,"313.15 K, x1 = 0.1365",789.29 ± 1.1 kg/m3
same,viscosity,"313.15 K, x1 = 0.1365",1.228 ± 0.24 mPa·s
same,mass density,"313.15 K, x1 = 0.2044",788.9 ± 1.2 kg/m3
same,viscosity,"313.15 K, x1 = 0.2044",1.003 ± 0.2 mPa·s
same,mass density,"313.15 K, x1 = 0.2721",788.51 ± 1.2 kg/m3
same,viscosity,"313.15 K, x1 = 0.2721",0.8187 ± 0.17 mPa·s
same,mass density,"313.15 K, x1 = 0.3395",788.13 ± 1.2 kg/m3
same,viscosity,"313.15 K, x1 = 0.3395",0.6806 ± 0.14 mPa·s
same,mass density,"313.15 K, x1 = 0.4066",787.74 ± 1.2 kg/m3
same,viscosity,"313.15 K, x1 = 0.4066",0.5709 ± 0.12 mPa·s
same,mass density,"313.15 K, x1 = 0.4735",787.36 ± 1.2 kg/m3
same,viscosity,"313.15 K, x1 = 0.4735",0.4786 ± 0.11 mPa·s
same,mass density,"313.15 K, x1 = 0.5402",786.97 ± 1.2 kg/m3
same,viscosity,"313.15 K, x1 = 0.5402",0.4206 ± 0.098 mPa·s
same,mass density,"313.15 K, x1 = 0.6066",786.59 ± 1.2 kg/m3
same,viscosity,"313.15 K, x1 = 0.6066",0.3681 ± 0.088 mPa·s
same,mass density,"313.15 K, x1 = 0.6727",786.21 ± 1.2 kg/m3
same,viscosity,"313.15 K, x1 = 0.6727",0.3429 ± 0.084 mPa·s
same,mass density,"313.15 K, x1 = 0.7387",785.83 ± 1.2 kg/m3
same,viscosity,"313.15 K, x1 = 0.7387",0.3191 ± 0.08 mPa·s
same,mass density,"313.15 K, x1 = 0.8044",785.45 ± 1.2 kg/m3
same,viscosity,"313.15 K, x1 = 0.8044",0.2915 ± 0.075 mPa·s
same,mass density,"313.15 K, x1 = 0.8698",785.07 ± 1.2 kg/m3
same,viscosity,"313.15 K, x1 = 0.8698",0.2805 ± 0.073 mPa·s
same,mass density,"313.15 K, x1 = 0.935",784.7 ± 1.2 kg/m3
same,viscosity,"313.15 K, x1 = 0.935",0.2718 ± 0.072 mPa·s
same,mass density,"313.15 K, x1 = 1",784.32 ± 1.2 kg/m3
same,viscosity,"313.15 K, x1 = 1",0.2545 ± 0.069 mPa·s
